B1: Interferon-gamma: proteinaceous positive regulator (protein, UniProt P01579 24-161, looked up)
Interferon gamma: QDPYVKEAENLKKYFNAGHSDVADNGTLFLGILKNWKEESDRKIMQSQIVSFYFKLFKNFKDDQSIQKSVETIKEDMNVKFFNSNKKKRDDFEKLTNYSVTDLNVQRKAIHELIQVMAELSPAAKTGKRKRSQMLFRG

Experiments:
GM-CSF mRNA = test: S1 nuclease protection, GM-CSF mRNA in 5637 cells; format: cell-based, human; details: 18 hours, low, medium and high concentrations
Protocol: (§1) S1 Nuclease protection assays were carried out as described in reference 94.
(§2) To further confirm, that compounds that had been identified in a luciferase expression assay using a G-CSF specific reporter cell line would be active in inducing transcription of the endogenous G-CSF gene, cells from the parental cell line 5637 used to construct the reporter cell line were incubated with cycloheximide (25 microg/ml), DMSO (0.5%, solvent control) and low, medium and high concentrations of the compounds 542 (10, 50, 250 microM),1255 (20, 100, 500 microM), 1793(0.25, 1.2, 6.25 microM) and 1904 (20, 100 microM) for 18 hours. RNA was extracted and the concentration of G-CSF, GM-CSF and gamma-actin mRNA was determined by the S1 protection method as described in Materials and Methods. The positions of G-CSF GM-CSF and gamma-actin specific protected fragments are indicated (G, GM, A) at the left side of the gel (FIG. 54).

secreted G-CSF protein = test: Two-antibody sandwich immunoassay of G-CSF secreted by 5637 bladder carcinoma cells; format: cell-based, human; details: 5637 cells, 48 hours, serum-containing media; TNF-alpha 5 ng/ml; #542 50 uM; #1780 1 uM and 0.2 uM; FIG. 55
Protocol: Supernatants from 5637 bladder carcinoma cells incubated with chemicals registering as positives in the G-CSF promoter/luciferase High-Throughput assay were assayed for secreted G-CSF protein using the two-antibody sandwich immunoassay (96). The G-CSF Assay kit manufactured by Oncogene Science, Inc. was used and the manufacturer's instructions were followed.
The levels of G-CSF in the cell supernatants were determined by a sandwich-antibody assay as described in Materials and Methods (FIG. 55).

FRE cells = format: cell-based
Protocol: To determine cytotoxic concentrations of chemicals registering as positives in the High-Throughput luciferase assay the MTT cytotoxicity assay was employed (95). In this assay, a tetrazolium salt [3-(4,5-dimethylthiazol-2-yl)-2,5-diphenyl-tetrazolium bromide, MTT] is reduced to a colored formazan product by reducing enzymes present only in living metabolically active cells.
Cells were seeded into 96 well microtiterplates (20 000 cells/well) and cultured overnight. Compound #542 was added at various concentrations and the cells were incubated for 6 hours. Luciferase activity was determined as described in Materials and Methods. The MTT-colorimetric assay was carried out on identically treated samples of FRE cells. Induction of luciferase reporter signal (plain line) and on inhibition of respiration (dashed line) are plotted versus the concentrations of compound (FIG. 56). The ED50 for induction of luciferase activity differed from the ED50 for inhibition of respiration by a factor of almost 10, which might indicate that compound #542 exerts a specific effect on G- and GM-CSF transcription.

G-CSF mRNA = test: S1 nuclease protection, G-CSF mRNA in 5637 cells; format: cell-based, human; details: 18 hours, 542 (10, 50, 250 microM), 1255 (20, 100, 500 microM), 1793 (0.25, 1.2, 6.25 microM), 1904 (20, 100 microM)
Protocol: as §1, §2

endogenous G-CSF mRNA = test: Northern blot of endogenous G-CSF mRNA in 5637 cells; format: cell-based, human; details: compared to solvent DMSO, normalized with beta-actin probe
Protocol: Total cellular RNA was isolated from the G21 cell clone or from untransfected 5637 cells following incubation for 6 hours with various transcriptionally modulating chemicals identified in the high-throughput screen. Cells were grown in serum free medium as described above. Total cellular RNA was isolated using the RNAZol method (CINNA/BIOTECX, Friendswood, Tex., Laboratories International, Inc.). Cells were resuspended and lysed with RNAZol solution (1.5 ml/9 cm petri dish) and the RNA was solubilized by passing the lysate a few times through a pipette. Chloroform was added to the homogenate (0.1 ml/1 ml), and samples were shaken for 15 seconds followed by a 5 minutes incubatoin on ice. After centrifuging for 10 minutes, the upper phase was collected and an equal volume of isopropanol was added. Samples were incubated for 45 minutes at −20 C, and the RNA was pelleted for 15 minutes at 12,000×g at 4 C. The RNA pellet was then washed with 70% ethanol and dried briefly under vacuum.
Total cellular RNA was isolated from 5637 cells following incubation with chemicals as described above and electrophoresed in a 1% Agarose-[…] Formaldehyde gel. The RNA was transferred to Duralon-UV nylon filters (Stratagene, La Jolla, Calif.) using the manufacturer's recommended protocol. The filters were prehybridized for 4 hours (prehybridizing solution=5X SSC, 50 mM sodium pyrophosphate, 10X Denhardt's solution, 10% dextran sulfate, 7% and 250 µg/ml denatured ssDNA) and then hybridized in the same solution for 16 hours at 65 C in the presence of G-CSF or Beta-Actin (Oncor, Gaithersburg, Md.) specific probes. The G-CSF probe was a 0.6 kb AflII o Xhol fragment which contained most of exon 5 of the human G-CSF gene. The B-actin probe was used as a control probe to normalize for the total amount of RNA. […] Bands were excised and counted in a liquid scintillation counter (LKB, Gaithersburg, Md.), and counts obtained with the G-CSF specific probe were normalized relative to the counts obtained with the B-Actin specific probe. […]

Molecule | amount of GM-CSF mRNA (S1 protection) (GM-CSF mRNA) | amount of G-CSF mRNA (S1 protection) (G-CSF mRNA) | endogenous G-CSF mRNA production (Northern blot) (endogenous G-CSF mRNA) | also measured
Nc1nc(=O)n([C@H]2C[C@H](O)[C@@H](CO)O2)cc1Br [Chemical 542, 5-Bromo-2′-deoxycytidine] | increased the amount of GM-CSF mRNA | increased mRNA production | – | G-CSF secretion into media (secreted G-CSF protein): increased G-CSF secretion; factor between ED50 for induction of luciferase activity (G21) and ED50 for inhibition of respiration (FRE cells) (FRE cells): ~10
O=c1[nH]c(=O)n([C@H]2C[C@H](O)[C@@H](CO)O2)cc1Br [Chemical 543, 5-Bromo-2′-deoxyuridine] | showed similar activity | – | – | –
CN(C)c1ccc(C(=C2C=CC(=[N+](C)C)C=C2)c2ccc([N+](C)(C)C)cc2)cc1.[Cl-].[Cl-] [Chemical 670, Methyl Green] | – | – | stimulated production of G-CSF mRNA | –
Clc1cc(Cl)cc(Br)c1 [Chemical 1255, 1-Bromo-3,5-dichlorobenzene] | – | increased mRNA production | stimulated production of G-CSF mRNA | –
CN(C)c1ccc(C(=C2C=CC(=[N+](C)C)C=C2)c2ccc(N(C)C)cc2)cc1 [Chemical 1780, Crystal Violet] | – | – | – | G-CSF secretion into media (secreted G-CSF protein): increased G-CSF secretion
CN(C)C(=S)SCC#N [Chemical 1793, Cyanomethyl-N,N-dimethyl dithiocarbomate] | increased the amount of GM-CSF mRNA | increased mRNA production | – | –
Cl.Nc1c2ccccc2nc2ccccc12 [Chemical 1904, 9-Aminoacridine hydrochloride] | – | increased mRNA production | – | –
B1 | – | – | increased G-CSF mRNA production | –

From patent publication US6376175B1, “Methods of discovering chemicals capable of functioning as gene expression modulators” (OSI Pharmaceuticals, Inc., priority 1989, dated 2002)
